# Results from ChEMBL document CHEMBL3232969, “Structure-based design and synthesis of tricyclic IAP (Inhibitors of Apoptosis Proteins) inhibitors” (Bioorg Med Chem Lett, 2014).
# How the values were obtained:
# [1] = Aqueous solubility of the compound
# [2] = Lipophilicity, log D of the compound; settings: octanol/water
# [3] = target: Voltage-gated inwardly rectifying potassium channel KCNH2 (Homo sapiens, UniProt Q12809); experiment: Inhibition of human ERG
# [4] = Inhibition of Cytochrome P450 (unknown origin); assay type: ADME; settings: human
# [5] = Intrinsic clearance in rat microsomes; assay type: ADME, Microsome
# MDA-MB-231 = experiment: Growth inhibition of human MDA-MB-231 cells; assay type: functional
# [6] = (§1) Percentage unbound in human plasma; settings: Fu
# Liver microsome = experiment: Intrinsic clearance in human liver microsomes; settings: microsomes
# Plasma = experiment: as §1
# Chain of Voltage-gated inwardly rectifying potassium channel KCNH2 (Q12809 whole entry): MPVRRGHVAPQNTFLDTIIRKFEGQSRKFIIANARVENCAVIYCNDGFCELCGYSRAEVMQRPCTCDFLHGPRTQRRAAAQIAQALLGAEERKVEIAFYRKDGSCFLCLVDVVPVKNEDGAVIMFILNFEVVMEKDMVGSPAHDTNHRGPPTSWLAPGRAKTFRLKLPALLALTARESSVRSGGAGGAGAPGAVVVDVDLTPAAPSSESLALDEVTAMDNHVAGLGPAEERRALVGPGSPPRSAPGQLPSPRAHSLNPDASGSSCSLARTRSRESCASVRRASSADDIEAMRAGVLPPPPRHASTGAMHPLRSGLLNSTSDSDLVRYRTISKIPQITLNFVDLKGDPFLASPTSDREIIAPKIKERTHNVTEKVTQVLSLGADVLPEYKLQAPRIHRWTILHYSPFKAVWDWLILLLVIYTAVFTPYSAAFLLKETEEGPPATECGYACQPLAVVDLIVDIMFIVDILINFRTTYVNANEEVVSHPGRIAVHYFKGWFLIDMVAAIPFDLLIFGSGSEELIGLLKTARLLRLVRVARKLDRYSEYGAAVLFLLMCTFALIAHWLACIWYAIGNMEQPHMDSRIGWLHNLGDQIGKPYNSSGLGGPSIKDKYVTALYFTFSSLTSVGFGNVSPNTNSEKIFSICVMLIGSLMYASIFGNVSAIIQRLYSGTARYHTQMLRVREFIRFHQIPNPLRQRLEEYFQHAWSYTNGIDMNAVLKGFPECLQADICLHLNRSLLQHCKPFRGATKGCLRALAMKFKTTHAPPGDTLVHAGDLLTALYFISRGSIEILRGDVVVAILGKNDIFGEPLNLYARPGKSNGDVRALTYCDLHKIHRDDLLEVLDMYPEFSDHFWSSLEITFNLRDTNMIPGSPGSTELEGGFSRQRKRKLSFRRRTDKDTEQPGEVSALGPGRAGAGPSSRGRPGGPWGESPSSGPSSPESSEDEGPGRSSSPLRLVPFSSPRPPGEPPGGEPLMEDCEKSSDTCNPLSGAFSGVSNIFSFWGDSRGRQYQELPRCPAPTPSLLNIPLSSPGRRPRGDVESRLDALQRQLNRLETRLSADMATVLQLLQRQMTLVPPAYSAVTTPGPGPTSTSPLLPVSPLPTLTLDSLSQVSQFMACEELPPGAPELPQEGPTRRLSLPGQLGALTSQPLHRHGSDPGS
solubility [1],logD ([2]; logD),INH [4],microsomal CLint [5],GI50 (MDA-MB-231),fraction unbound [6],CLH (Liver microsome),logD [2],Fu (Plasma),SMILES,INH [3]
> 1000 µM,1.8,> 20 µM,7 µL/min/mg,0.01 µM,0.051,,,,CN[C@@H](C)C(=O)N[C@H]1CCC[C@H]2C[C@H]3CCN(C(=O)C(OCC#CC#CCOC(C(=O)N4CC[C@@H]5C[C@@H]6CCC[C@H](NC(=O)[C@H](C)NC)C(=O)N6[C@@H]5C4)c4ccccc4)c4ccccc4)C[C@H]3N2C1=O (stereo in doubt; 53),> 33 µM
,,,,> 11 µM,,8.5 µL/min/mg,0.8,17%,C#CCOCC(C(=O)N1CC[C@@H]2C[C@@H]3CCC[C@H](NC(=O)[C@H](C)NC)C(=O)N3[C@@H]2C1)c1ccccc1 (stereo in doubt; 43),
> 1000 µM,0.6,,,3.7 µM,0.14,23 µL/min/mg,,,C#CCOCC(C(=O)N1CC[C@@H]2C[C@@H]3CCC[C@H](NC(=O)[C@H](C)NC)C(=O)N3[C@@H]2C1)c1ccccc1 (stereo in doubt; 42),
